Read-outs that look alike come from different tables or passages of the source.
How the values were obtained:
NUGC3 p53 Y220C = test: Cell Proliferation Assay (CellTiter-Glo, CTG), NUGC3 p53 Y220C; assay type: cell-based; conditions: Homo sapiens, NUGC-3, 120 h, CellTiter-Glo, NUGC3 p53 Y220C, 5 days
Method in brief: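 Tet-One inducible p53 Y220C or R273H constructs were stably introduced into NCI-H1299 by lentiviral transduction; NUGC3 was used as is. Cells (250-500 per well) were exposed to compound for 5 days, then CellTiter-Glo was added for 10 min at room temperature and IC50 was calculated from luminescence.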

p53 Y220C = p53 Y220C (Homo sapiens, UniProt P04637, Y220C); test: Luciferase Reporter Assay (Luc), p53 response element, NClH1299 cells with inducible p53 Y220C; assay type: cell-based; conditions: luciferase reporter, NClH1299 inducible p53 Y220C, 6 hour; for Emax: 10 uM tool compound as positive control; for AC50: read-out: Luc P53 Y220C AC50
Method in brief: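 Cells were seeded at 5,000 per well and induced with 0.5 ug/mL doxycycline for 24 hours, then exposed to compound for 6 hours. One-Glo reagent was added, plates shaken 5 minutes at room temperature, and luminescence read immediately.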

[1] = target: T1, p53 Y220C mutant protein (amino acid residues 94-293) (Homo sapiens, UniProt P04637, Y220C); test: Thermal Shift Assay (TSA), dTM; assay type: binding; conditions: thermal shift; for ΔTm at 100 µM: 100 uM compound, read-out: TSA P53 Y220C dTM (100 uM); for ΔTm at 10 µM: 10 uM compound, read-out: TSA P53 Y220C dTM (10 uM)
T1 construct: p53 Y220C mutant protein (amino acid residues 94-293)
Method in brief: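 Sypro Orange melt (30→50 °C, 0.03 °C/s) with TM taken from a Boltzmann two-state fit. Protein (residues 94-293) at 5 μM was pre-incubated 3 h at 20 °C with compound at 10 μM or 100 μM in pH 7.4 HEPES/NaCl buffer containing 0.01% Pluronic F-127 and 1% DMSO.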

H1299 p53 Y220C = test: Cell Proliferation Assay (CellTiter-Glo, CTG), H1299 p53 Y220C (NClH1299-inducible p53 Y220C); assay type: cell-based; conditions: Homo sapiens, NCI-H1299, 120 h, CellTiter-Glo, H1299 p53 Y220C, 5 days
Method in brief: (§1)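 NClH1299 lines stably transduced with Tet-inducible p53 Y220C or R273H, plus NUGC3, were treated with compound for 5 days at 250-500 cells/well. IC50 derived from CellTiter-Glo luminescent signal after 10 min room-temperature incubation.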

H1299 p53 R273H = test: Cell Proliferation Assay (CellTiter-Glo, CTG), H1299 p53 R273H (NClH1299-inducible p53 R273H); assay type: cell-based; conditions: Homo sapiens, NCI-H1299, 120 h, CellTiter-Glo, H1299 p53 R273H, 5 days
Method in brief: as §1

[2] = target: T1, p53 Y220C mutant protein (amino acid residues 94-293); test: Surface Plasmon Resonance (SPR) assay, Kd_kinetic; assay type: binding; conditions: read-out: SPR P53 Y220C KD kinetic
Method in brief: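 Biacore 8K SPR; 16 or 20 °C; Tris 50 mM pH 7.5, NaCl 100 mM, DTT 1 mM, Brij35 0.01%, Tween-20 0.05%, DMSO 1%. Kd_kinetic by 1:1 fit.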

| SMILES | IC50 (NUGC3 p53 Y220C) [nM] | Emax (p53 Y220C) [%] | AC50 (p53 Y220C) [nM] | ΔTm at 100 µM [1] [°C] | IC50 (H1299 p53 Y220C) [nM] | IC50 (H1299 p53 R273H) [nM] | Kd ([2]; SPR, kinetic KD, p53 Y220C) [nM] | ΔTm at 10 µM [1] [°C] | Kd [2] [nM] |
| --- | --- | --- | --- | --- | --- | --- | --- | --- | --- |
| COC(=O)N1CCC(Nc2cccn3c(CC(F)(F)F)c(C#CCNc4ccc(S(C)(=O)=O)cc4OC)nc23)CC1 [Example 116, methyl 4-[(2-{3-[(4-methanesulfonyl-2-methoxyphenyl)amino]prop-1-yn-1-yl}-3-(2,2,2-trifluoroethyl)imidazo[1,2-a]pyridin-8-yl)amino]piperidine-1-carboxylate] | > 3000 | < 70 | > 3000 | 5 to 10 | > 3000 | ≥ 10000 | 100 to 1000 | – | – |
| CNC(=O)N1CCC(Nc2cccn3c(CC(F)(F)F)c(C#CCNc4ccc(S(C)(=O)=O)cc4OC)nc23)CC1 [Example 117, 4-[(2-{3-[(4-methanesulfonyl-2-methoxyphenyl)amino]prop-1-yn-1-yl}-3-(2,2,2-trifluoroethyl)imidazo[1,2-a]pyridin-8-yl)amino]-N-methylpiperidine-1-carboxamide] | > 3000 | 70 to 80 | > 3000 | 5 to 10 | > 3000 | ≥ 10000 | 10 to 100 | – | – |
| CNC(=O)c1ccc(NCC#Cc2nn3c(N[C@@H]4CCN(C)C[C@@H]4F)cccc3c2CC(F)(F)F)c(OC)c1 [Example 118] | 1500 to 3000 | 70 to 80 | 1500 to 3000 | 5 to 10 | 1500 to 3000 | ≥ 10000 | 10 to 100 | – | – |
| COc1cc(C(=O)N2CCOCC2)ccc1NCC#Cc1nc2c(N[C@@H]3CCN(C)C[C@@H]3F)cccn2c1SC(F)(F)F [Example 119] | < 750 | 80 to 90 | < 750 | ≥ 10 | < 750 | ≥ 10000 | – | ≥ 10 | < 10 |
| CNC(=O)c1cc(OC)c(NCC#Cc2nc3c(N[C@@H]4CCN(C)C[C@@H]4F)cccn3c2SC(F)(F)F)cc1Cl [Example 121] | < 750 | > 90 | < 750 | ≥ 10 | < 750 | 8000 to 10000 | < 10 | ≥ 10 | – |
| CNC(=O)c1ccc(NCC#Cc2nc3c(N[C@@H]4C[C@H]5CC[C@@H]([C@@H]4F)N5C)cccn3c2SC(F)(F)F)c(OC)c1 [Example 122] | < 750 | 80 to 90 | < 750 | ≥ 10 | < 750 | 5000 to 8000 | < 10 | ≥ 10 | – |
| CNC(=O)c1ccc(O)c(NCC#Cc2cc3c(N[C@@H]4CCN(C)C[C@@H]4F)nccn3c2SC(F)(F)F)c1 [Example 123] | < 750 | > 90 | < 750 | – | < 750 | ≥ 10000 | < 10 | ≥ 10 | – |
| CNC(=O)c1ccc(OC)c(NCC#Cc2cc3c(N[C@@H]4CCN(C)C[C@@H]4F)cccn3c2SC(F)(F)F)c1 [Example 124, 3-{[3-(8-{[(3S,4R)-3-fluoro-1-methylpiperidin-4-yl]amino}-3-[(trifluoromethyl)sulfanyl]indolizin-2-yl)prop-2-yn-1-yl]amino}-4-methoxy-N-methylbenzamide] | < 750 | > 90 | < 750 | – | < 750 | 5000 to 8000 | < 10 | ≥ 10 | – |
| CNC(=O)c1ccc(OC)c(NCC#Cc2cc3c(N[C@@H]4CCNC[C@@H]4F)cccn3c2SC(F)(F)F)c1 [Example 125, 3-{[3-(8-{[(3S,4R)-3-fluoropiperidin-4-yl]amino}-3-[(trifluoromethyl)sulfanyl]indolizin-2-yl)prop-2-yn-1-yl]amino}-4-methoxy-N-methylbenzamide] | < 750 | > 90 | < 750 | – | < 750 | 5000 to 8000 | < 10 | ≥ 10 | – |
| CNC(=O)c1ccc(NCC#Cc2cc3c(N[C@@H]4CCN(C)C[C@@H]4F)cccn3c2SC(F)(F)F)c(OC)c1 [Example 126, 4-{[3-(8-{[(3S,4R)-3-fluoro-1-methylpiperidin-4-yl]amino}-3-[(trifluoromethyl)sulfanyl]indolizin-2-yl)prop-2-yn-1-yl]amino}-3-methoxy-N-methylbenzamide] | < 750 | > 90 | < 750 | – | < 750 | 8000 to 10000 | < 10 | ≥ 10 | – |
| CCOc1cc(C(=O)NC)ccc1NCC#Cc1nc2c(N[C@@H]3CCN(C)C[C@@H]3F)cccn2c1SC(F)(F)F [Example 127] | < 750 | 80 to 90 | < 750 | ≥ 10 | < 750 | 8000 to 10000 | < 10 | ≥ 10 | – |
| COc1cc2n[nH]cc2cc1NCC#Cc1nc2c(N[C@@H]3CCN(C)C[C@@H]3F)cccn2c1SC(F)(F)F [Example 128] | 750 to 1500 | 80 to 90 | < 750 | ≥ 10 | 750 to 1500 | < 5000 | < 10 | ≥ 10 | – |
| CNC(=O)c1ccc(NCC#Cc2nc3c(NC4CCN(C)CC4)cccn3c2SC(F)(F)F)c(OC)c1 [Example 129] | < 750 | 80 to 90 | < 750 | ≥ 10 | < 750 | 5000 to 8000 | < 10 | ≥ 10 | – |
| CNC(=O)c1ccc(NCC#Cc2nc3c(N[C@H]4C[C@@H]5CC[C@H]([C@H]4F)N5C)cccn3c2SC(F)(F)F)c(OC)c1 [Example 130] | < 750 | 70 to 80 | < 750 | ≥ 10 | < 750 | 5000 to 8000 | < 10 | ≥ 10 | – |

From patent US20260374766A1, “METHODS FOR TREATING CANCER” (Antares Therapeutics, Inc., priority 2022, published 2026)
